Measured values published in PMC4850393, “Sequence diversity of NanA manifests in distinct enzyme kinetics and inhibitor susceptibility” (Scientific Reports, 2016).

Key:
20566-CC (NanA-DSM20566) [1] = target: 20566-CC (NanA-DSM20566) (Streptococcus pneumoniae, UniProt P62576, G441A/I442V/K440R); assay: biochemical
20566-CC (NanA-DSM20566) [2] = target: T1, 20566-CC (NanA-DSM20566) (Streptococcus pneumoniae, UniProt P62576); assay: chemiluminescence NA-Star assay; format: biochemical; settings: read-out: 50% inhibitory concentration (μM) ^a / DANA
T1 construct: catalytic domain only, residues 311-833 (523 aa), N-terminal 6xHis (pET-28a), ~62 kDa, E. coli BL21(DE3); catalytic domain printed as identical to CF8919
From the text: chemiluminescence NA-Star assay on 20566-CC (NanA-DSM20566)

20566-CC (NanA-DSM20566) [3] = target: T2, 20566-CC (NanA-DSM20566) (Streptococcus pneumoniae, UniProt P62576, I442V); assay: biochemical
20566-LC (NanA-DSM20566) = target: T3, 20566-LC (NanA-DSM20566) (Streptococcus pneumoniae, UniProt P62576); assay: chemiluminescence NA-Star assay; format: biochemical; settings: read-out: 50% inhibitory concentration (μM) ^a / DANA
T3 construct: lectin (CBM40) + catalytic domains, residues 116-833, N-terminal 6xHis (pET-28a), ~84 kDa, E. coli BL21(DE3), cobalt column
From the text: chemiluminescence NA-Star assay on 20566-LC (NanA-DSM20566)

20566-CC (NanA-DSM20566) [4] = target: T2, 20566-CC (NanA-DSM20566); settings: read-out: 20566-CC-KGV; MES, 4 mM CaCl2, pH 6.5, room temperature
20566-CC (NanA-DSM20566) [5] = target: 20566-CC (NanA-DSM20566) (Streptococcus pneumoniae, UniProt P62576, K440R/G441A/I442V); settings: read-out: 20566-CC-RAV; MES, 4 mM CaCl2, pH 6.5, room temperature
20566-CC (NanA-DSM20566) [6] = target: 20566-CC (NanA-DSM20566) (Streptococcus pneumoniae, UniProt P62576, DEL440-442); settings: read-out: 20566-CC-ΔKGI; MES, 4 mM CaCl2, pH 6.5, room temperature
[7] = system: CC(=O)N[C@H]1[C@H]([C@H](O)[C@H](O)CO)O[C@@](Oc2ccc3c(C)cc(=O)oc3c2)(C(=O)O)C[C@@H]1O; assay: purified protein; settings: pH 6.5
[8] = system: CC(=O)N[C@H]1[C@H]([C@H](O)[C@H](O)CO)O[C@@](Oc2ccc3c(C)cc(=O)oc3c2)(C(=O)O)C[C@@H]1O; assay: purified protein; settings: pH 6.5; remark: listed apart in the source

With CC(=O)N[C@H]1[C@H]([C@H](O)[C@H](O)CO)OC(C(=O)O)=C[C@@H]1O [DANA, 2,3-dehydro-2-deoxy-N-acetylneuraminic acid] the IC50 (20566-CC (NanA-DSM20566) [1]) was 0.92 ± 0.71 µM, the IC50 (20566-CC (NanA-DSM20566) [2]) was 2.35 ± 0.16 µM and the IC50 (20566-CC (NanA-DSM20566) [3]) was 4.56 ± 0.71 µM. It also gave an IC50 (20566-LC (NanA-DSM20566)) of 3.8 ± 0.5 µM.

With CC(=O)N[C@H]1[C@H]([C@H](O)[C@H](O)CO)O[C@@](Oc2ccc3c(C)cc(=O)oc3c2)(C(=O)O)C[C@@H]1O [MUNANA, 2′-(4-methylumbelliferyl)-a-D-N-acetylneuraminic acid] the Km (20566-CC (NanA-DSM20566) [4]) was 32.8 ± 4.78 µM, the Km (20566-CC (NanA-DSM20566) [5]) was 17.9 ± 1.07 µM and the Km (20566-CC (NanA-DSM20566) [6]) was > 1000 µM.

(Streptococcus pneumoniae R6) was tested, and the Km [7] was 24.50 ± 2.71 µM and the Km [8] was 25.97 ± 2.19 µM.
